pIC50: −log10 of the molar value. A value given as a limit tells only on which side of the number the result lay.

The pIC50 is −log10 of the IC50, conventionally taken in molar units.

Format in all cases: cell-based
Assay [1] has as its target T1, MRGPRX2 (Homo sapiens, UniProt Q96LB1).
T1 sequence (Q96LB1 1-330): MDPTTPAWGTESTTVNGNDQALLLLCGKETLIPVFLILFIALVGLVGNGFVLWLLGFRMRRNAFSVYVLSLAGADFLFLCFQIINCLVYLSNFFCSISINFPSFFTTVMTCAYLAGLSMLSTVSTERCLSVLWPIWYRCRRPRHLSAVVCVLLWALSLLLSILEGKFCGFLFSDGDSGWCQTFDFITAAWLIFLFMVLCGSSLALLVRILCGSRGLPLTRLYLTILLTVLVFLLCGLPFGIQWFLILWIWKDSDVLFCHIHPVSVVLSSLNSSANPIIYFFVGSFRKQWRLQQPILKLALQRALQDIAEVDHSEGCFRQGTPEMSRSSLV
The experiment in a line: MRGPRX2 FLIPR calcium mobilization assay. On the set-up: host or cells: CHO-K1. The conditions noted are these: CHO-K1 cells stably expressing human MRGPRX2; Ca2+ release, agonist Cortistatin-14 at EC80. As for the experimental part:
Example A. MRGPRX2 FLIPR Calcium Mobilization Assay
Chinese hamster ovary (CHO-K1) cells stably expressing human MRGPRX2 were purchased from Genescript (Piscataway, NJ). The cells were maintained in culture medium (Ham's F-12K) containing 10% (v/v) FBS, 200 μg/mL Zeocin, 100 units/mL penicillin G and 100 μg/mL streptomycin (Life Technologies, Carlsbad, CA). For the assay, the cells were harvested and resuspended with culture medium without Zeocin before plating at 8000 cells per well in 20 μL in 384-well black clear bottom cell culture plates (VWR, Radnor, PA). After 24 h culture at 37° C. and 5% CO2, the cells were loaded with 20 μL/well of calcium dye (FLIPR Calcium 6 Assay Kit, Molecular Devices, San Jose, CA) diluted in loading buffer (1×Hank's Balanced Salt Solution (HBSS), 5 mM probenecid, 20 mM 4-(2-hydroxyethyl)-1-piperazineethanesulfonic acid (HEPES), pH 7.4, VWR, Radnor, PA) followed with 45 min incubation at 37° C. and 40 min at room temperature in the dark. Cells were then treated with the addition of 10 uL/well test compounds with a range of increasing concentrations diluted in the assay buffer (1×HBSS, 20 mM HEPES, pH 7.4, VWR, Radnor, PA) with FLIPR Penta (Molecular Devices. San Jose, CA) and incubated for 30 min. at room temperature. Ca^2+ release was measured with FLIPR Penta with 10 seconds basal fluorescence measurement, then 12.5 μL of 5× agonist Cortistatin-14 (Tocris, Minneapolis, MN) at final concentration corresponding to the EC80 were added followed with continued fluorescence signal monitoring for an additional 110 seconds. The base line adjusted (median of first 10s base line) max value of the Relative Fluorescence Unit (RFU) was plotted against compound concentrations. Wells with no compound were served as the positive controls, and wells with high concentration of reference antagonist were used as negative controls. IC50 curves were globally fitted with 3- or 4-parameter Hill equation in a Genedata Screener (Genedata Basel, Switzerland).

The target of assay [2] is T1, MRGPRX2. The assay is described as follows: MRGPRX2 IP1 HTRF assay. On the set-up: host or cells: CHO-K1. The conditions noted are these: CHO-K1 cells stably expressing human MRGPRX2; IP1 accumulation, agonist Cortistatin 14 1 μM. The source says: Example B: MRGPRX2 IP1 HTRF Assay
This assay measures compound inhibition of myo-Inositol 1 phosphate (IP1) accumulation in CHO-K1 cells. Chinese hamster ovary (CHO-K1) cells stably expressing human MRGPRX2 were purchased from GenScript (Piscataway, NJ).
For the HTRF IP1 determination, an IP-One GqKit (Perkin Elmer Cisbio, Waltham, MA), which includes all reagents and buffers in this protocol, was used. The cells were maintained in culture medium (Ham's F-12K) containing 10% (v/v) FBS, and 200 μg/mL Zeocin. For the assay, the cells were harvested and resuspended in culture medium with 2% FBS and without Zeocin, then were passed through a 40 μm filter. Cells were added at 20000 cells in a 5 μL/well to a 384-well white small volume cell culture plate (Greiner VWR, Radnor, PA) which contained 50 nL/well of test compound serially diluted at a selected concentration range in DMSO. 5 μL/well of prepared 2× Stimulation Buffer2 was then added to plates and was incubated at 37° C. with 5% CO2 for 1 h. 5 μL/well of agonist Cortistatin 14 (Bio-TechneR&D Systems, Minneapolis, MN) in 1× Stimulation Buffer 2, for a 1 μM final concentration, was then added to plates and incubated at 37° C. with 5% CO2 for 1 h. 6 μL/well of 1:20 diluted Detection Reagent Mix (d2 and Cryptate) was added to the plates and incubated for 1 h in the dark. Plates were read on the PHERAstar microplate reader (BMG Labtech Cary, NC) to determine the HTRF ratio of the acceptor and donor emission signals. The IP1 concentrations were calculated from a standard curve following the IP-One GQ kit instructions. Wells with DMSO only and wells with high concentration of reference antagonist were used as controls for normalization. Compound IC50 curves were globally fitted with 3- or 4-parameter Hill equation in a Genedata Screener (Genedata Basel, Switzerland).
Background: TR-FRET usually uses a lanthanide donor and a delayed reading to cut background.

Assay [3] concerns the target T1, MRGPRX2. The experiment in a line: MRGPRX2 β-Arrestin assay. Also noted: host or cells: PathHunter CHO-K1. Conditions: PathHunter CHO-K1 MRGPRX2 β-Arrestin cell line; agonist Cortistatin 14 0.25 μM. An excerpt:
Example C: MRGPRX2 β-Arrestin Assay
This assay measures compound inhibition of β-Arrestin recruitment, which is part of the G protein-independent pathway that results from the ligand-activated GPCR phosphorylation by specific GPCR kinases. The PathHunter CHO-K1 MRPGRX2 B-Arrestin Cell line stably expressing ProLink tagged MRGPRX2 and Enzyme Acceptor Tagged B-Arrestin was purchased from Eurofins DiscoverX, (Fremont, CA).
The cells were maintained in culture medium from the Europhins DiscoverX Cell Culture Kit-107 which includes FBS, hygromycin B and G418. For the assay, the cells were harvested and were resuspended with Cell Plating Reagent 2 (Eurofins DiscoverX). Cells were added 10000 cells in 25 µL/well to a 384-well black cell culture plate (Greiner VWR, Radnor, PA) which contained 125 nL/well of compound at a selected serially diluted concentration range or DMSO. The plate was incubated at 37° C. with 5% CO2 for 1 h. 2 μL/well of agonist Cortistatin 14 was diluted in Protein Dilution Buffer, (Eurofins DiscoverX) for a final concentration of 0.25 μM, was added and the plate was incubated at 37° C. with 5% CO2 for 90 min. 14 μL/well of Detection Reagent Mix (PathHunter Detection Kit, Eurofins DiscoverX) was added to the plates and further incubated for 1 h in the dark. Plates were read on the PHERAstar microplate reader (BMG Labtech Cary, NC) measuring luminescence 0.1 to 1 second per well. Data was normalized using DMSO only wells and wells with high concentration of reference antagonist as controls. Compound IC50 curves were globally fitted with 3- or 4-parameter Hill equation in a Genedata Screener (Genedata Basel, Switzerland).

`Cc1cccc2nc(C(F)(F)F)cc(NCC3(c4ccc(F)cn4)CN(C(N)=O)C3)c12` [Example 62, 3-(5-Fluoropyridin-2-yl)-3-(((5-methyl-2-(trifluoromethyl)quinolin-4-yl)amino)methyl)azetidine-1-carboxamide]: the pIC50 in assay [1] and in assay [2] was below 6.00 each time.

Regarding `NC(=O)N1CC(CNc2cc(C(F)(F)F)nc3cc(C(F)(F)F)ccc23)(c2ccc(F)cn2)C1` [Example 63, 3-(((2,7-Bis(trifluoromethyl)quinolin-4-yl)amino)methyl)-3-(5-fluoropyridin-2-yl)azetidine-1-carboxamide], the pIC50 was 6.00 to 7.00 in assay [1] and below 6.00 in assay [2].

In turn, `NC(=O)N1CC(CNc2cc(C(F)(F)F)nc3ccncc23)(c2ccc(F)cc2)C1` [Example 65, 3-(4-Fluorophenyl)-3-(((2-(trifluoromethyl)-1,6-naphthyridin-4-yl)amino)methyl)azetidine-1-carboxamide] gave a pIC50 in assay [3] of 6.00 to 7.00.

With `FC(F)(F)c1cc(NCC2(n3ccc(C(F)(F)F)n3)CNC2)c2cc(Cl)ccc2n1` [Example 68, 6-Chloro-2-(trifluoromethyl)-N-((3-(3-(trifluoromethyl)-1H-pyrazol-1-yl)azetidin-3-yl)methyl)quinolin-4-amine], the pIC50 in assay [3] was 6.00 to 7.00.

As for `[2H]C([2H])([2H])NC(=O)N1CC(CNc2cc(C(F)(F)F)nc3ccc(Cl)cc23)(n2ncc3c2CCC3)C1` [Example 69, 3-(((6-Chloro-2-(trifluoromethyl)quinolin-4-yl)amino)methyl)-3-(5,6-dihydrocyclopenta[c]pyrazol-1(4H)-yl)-N-(methyl-d3)azetidine-1-carboxamide], the pIC50 in assay [3] is 7.00 to 10.00.

With `[2H]C([2H])([2H])NC(=O)N1CC(CNc2cc(C(F)(F)F)nc3ccc(Cl)cc23)(n2cc(CC#N)cn2)C1` [Example 71, 3-(((6-Chloro-2-(trifluoromethyl)quinolin-4-yl)amino)methyl)-3-(4-(cyanomethyl)-1H-pyrazol-1-yl)-N-(methyl-d3)azetidine-1-carboxamide], the pIC50 in assay [3] was 6.00 to 7.00.

`Cn1nccc1NC1CC(CNc2cc(C(F)(F)F)nc3ccc(Cl)cc23)(c2ccc(F)cn2)C1` (centres unmarked) [Example 72, 6-Chloro-N-((1-(5-fluoropyridin-2-yl)-3-((1-methyl-1H-pyrazol-5-yl)amino)cyclobutyl)methyl)-2-(trifluoromethyl)quinolin-4-amine]: the pIC50 in assay [3] is 7.00 to 10.00.

On to `CN1CC(C(=O)NC2CC(CNc3cc(C(F)(F)F)nc4ccc(Cl)cc34)(c3ccccc3)C2)C1` (centres unmarked) [Example 75, N-(3-(((6-Chloro-2-(trifluoromethyl)quinolin-4-yl)amino)methyl)-3-phenylcyclobutyl)-1-methylazetidine-3-carboxamide], for which, in assay [3], the negative logarithm of the IC50 (pIC50) is 7.00 to 10.00.

Turning to `CN1CCC(C(=O)NC2CC(CNc3cc(C(F)(F)F)nc4ccc(Cl)cc34)(c3ccccc3)C2)CC1` (centres unmarked) [Example 76, N-(3-(((6-Chloro-2-(trifluoromethyl)quinolin-4-yl)amino)methyl)-3-phenylcyclobutyl)-1-methylpiperidine-4-carboxamide], the pIC50 in assay [3] was 7.00 to 10.00.

In turn, `O=C(NC1CC(CNc2cc(C(F)(F)F)nc3ccc(Cl)cc23)(c2ccccc2)C1)C(O)C(F)(F)F` (centres unmarked) [Example 77, N-(3-(((6-Chloro-2-(trifluoromethyl)quinolin-4-yl)amino)methyl)-3-phenylcyclobutyl)-3,3,3-trifluoro-2-hydroxypropanamide] showed a pIC50 in assay [3] of 7.00 to 10.00.

The molecule `COCCN1CC(CNc2cc(C(F)(F)F)nc3ccc(Cl)cc23)(c2ccc(F)cc2)C1` [Example 92, 6-Chloro-N-((3-(4-fluorophenyl)-1-(2-methoxyethyl)azetidin-3-yl)methyl)-2-(trifluoromethyl)quinolin-4-amine] had a pIC50 in assay [3] of 7.00 to 10.00.

In the case of `NS(=O)(=O)N1CCC(CNc2cc(C(F)(F)F)nc3ccc(Cl)cc23)(c2ccc(F)cn2)CC1` [Example 100, 4-(((6-Chloro-2-(trifluoromethyl)quinolin-4-yl)amino)methyl)-4-(5-fluoropyridin-2-yl) piperidine-1-sulfonamide], the pIC50 in assay [1] and in assay [2] was 7.00 to 10.00 in each case.

Turning to `N#Cc1cnn(C2(CNc3cc(C(F)(F)F)nc4ccc(Cl)cc34)CN(C(N)=O)C2)c1` [Example 101, 3-(((6-Chloro-2-(trifluoromethyl)quinolin-4-yl)amino)methyl)-3-(4-cyano-1H-pyrazol-1-yl)azetidine-1-carboxamide], the pIC50 in assay [1] and in assay [2] was 7.00 to 10.00 each time.

On to `COc1cnn(C2(CNc3cc(C(F)(F)F)nc4ccc(Cl)cc34)CN(C(N)=O)C2)c1` [Example 102, 3-(((6-Chloro-2-(trifluoromethyl)quinolin-4-yl)amino)methyl)-3-(4-methoxy-1H-pyrazol-1-yl)azetidine-1-carboxamide], for which the figures for the negative-log IC50 (pIC50) in assay [1] and in assay [2] were 7.00 to 10.00 and 6.00 to 7.00, respectively.

For the molecule `Cc1ccn(C2(CNc3cc(C(F)(F)F)nc4ccc(Cl)cc34)CN(C(N)=O)C2)n1` [Example 103, 3-(((6-Chloro-2-(trifluoromethyl)quinolin-4-yl)amino)methyl)-3-(3-methyl-1H-pyrazol-1-yl)azetidine-1-carboxamide], the pIC50 in assay [1] and in assay [2] was 7.00 to 10.00 in each case.

For `N#Cc1ccn(C2(CNc3cc(C(F)(F)F)nc4ccc(Cl)cc34)CN(C(N)=O)C2)n1` [Example 104, 3-(((6-Chloro-2-(trifluoromethyl)quinolin-4-yl)amino)methyl)-3-(3-cyano-1H-pyrazol-1-yl)azetidine-1-carboxamide], the negative-log IC50 (pIC50) in assay [1] and in assay [2] was 7.00 to 10.00 throughout.

The record behind these values is patent US20250084063A1 (Incyte Corporation, priority 2023, published 2025).
